Here are results for 22 compounds from publication PMC6816013 (Journal of Medicinal Chemistry, 2019).

“Also recorded” adds a separate entry of the source. Counter-ions that a name gives are not always drawn. Like-named read-outs stand apart in the source and are kept apart here.

One data set can be described thus: Cell cytotoxicity assay. It is filed as cell-based. To be noted: for cytotoxicity/cell activity safety window: cytotoxicity EC50 / Pf EC50.
The target in a further data set is HSA (Homo sapiens, UniProt P02768). Nature of the data set: HSA binding (plasma protein binding). It is filed as in vitro ADME.
Data set [1] has as its system Plasmodium falciparum 3D7A. To be noted: read-out: Pf EC50; 3D7A asexual blood stage, 48 h [3H]-hypoxanthine assay, maximal concentration 5 μM.
For data set [2] the following is noted: ChromlogD.
For data set [3] the following is noted: aqueous solubility.
Data set [4] deals with P. falciparum strain 3D7A. The class given is cell-based, Plasmodium falciparum.
The subject of data set [5] is Plasmodium falciparum WT cell line. Nature of the data set: Growth inhibition of P. falciparum WT cell line at 48 and 72 h. The class given is cell-based. Conditions: read-out: Pf WT cell line EC50 72h.
Data set [6] relates to Plasmodium falciparum 3D7A. Nature of the data set: microbe, parasite or virus in culture. To be noted: read-out: Pf EC50.
Data set [7] has as its target T1, serine/arginine protein kinase 2 (SRPK2 or CLK2) (Plasmodium falciparum, UniProt Q8IL41).
T1 sequence (Q8IL41 1-1268): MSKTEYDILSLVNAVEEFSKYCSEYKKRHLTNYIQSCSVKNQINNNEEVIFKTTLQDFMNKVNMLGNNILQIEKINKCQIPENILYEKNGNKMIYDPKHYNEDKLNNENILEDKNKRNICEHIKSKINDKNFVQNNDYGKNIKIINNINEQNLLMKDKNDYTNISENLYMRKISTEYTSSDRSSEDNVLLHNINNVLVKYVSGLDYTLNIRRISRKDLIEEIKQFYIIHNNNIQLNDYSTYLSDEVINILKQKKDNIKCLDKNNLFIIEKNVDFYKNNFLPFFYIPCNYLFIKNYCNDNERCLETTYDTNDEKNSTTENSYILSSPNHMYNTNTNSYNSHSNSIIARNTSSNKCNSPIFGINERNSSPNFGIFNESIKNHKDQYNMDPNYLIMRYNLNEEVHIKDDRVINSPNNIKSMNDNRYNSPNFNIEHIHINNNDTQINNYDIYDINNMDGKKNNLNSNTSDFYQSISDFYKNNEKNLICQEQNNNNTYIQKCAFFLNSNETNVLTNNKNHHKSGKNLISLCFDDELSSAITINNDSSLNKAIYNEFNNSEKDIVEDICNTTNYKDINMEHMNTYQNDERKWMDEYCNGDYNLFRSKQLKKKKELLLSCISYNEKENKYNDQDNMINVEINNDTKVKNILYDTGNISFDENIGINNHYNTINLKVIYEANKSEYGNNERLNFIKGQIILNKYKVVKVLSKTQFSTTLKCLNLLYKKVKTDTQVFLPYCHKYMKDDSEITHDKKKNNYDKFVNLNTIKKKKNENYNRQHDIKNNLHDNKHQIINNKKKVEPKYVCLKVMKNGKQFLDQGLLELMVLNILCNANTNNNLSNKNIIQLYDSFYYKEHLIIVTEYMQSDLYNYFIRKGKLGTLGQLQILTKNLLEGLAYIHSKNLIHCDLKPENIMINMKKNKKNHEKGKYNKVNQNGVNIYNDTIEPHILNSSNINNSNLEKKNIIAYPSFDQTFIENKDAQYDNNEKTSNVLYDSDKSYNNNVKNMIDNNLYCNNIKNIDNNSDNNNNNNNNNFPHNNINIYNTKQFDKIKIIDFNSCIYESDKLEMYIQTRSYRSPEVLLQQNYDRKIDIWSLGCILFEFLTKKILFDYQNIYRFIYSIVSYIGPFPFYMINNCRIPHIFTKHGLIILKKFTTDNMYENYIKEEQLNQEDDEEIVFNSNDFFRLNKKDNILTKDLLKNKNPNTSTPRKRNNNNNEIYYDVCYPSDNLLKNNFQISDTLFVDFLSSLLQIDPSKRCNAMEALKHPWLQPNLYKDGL
Nature of the data set: Kinobeads competition binding in P. falciparum extract. To be noted: Figure 4a, read-out: Kd^app SRPK2.

The target of the next data set is T2, SRPK2 (Plasmodium falciparum, UniProt Q8IL41).
T2 sequence (Q8IL41 1-1268): T1 sequence (Q8IL41 1-1268)
Nature of the data set: Pull down with compound 31 or 50 attached to beads, competition with free compound. The class given is binding. Conditions: competed with free analogue, Figure 4b.

Data set [8] in a line: Intrinsic clearance in rat liver microsomes. To be noted: 0.5 µM. It is filed as in vitro ADME.
Setting [9] is: PRR, 10 × EC50, result in words.

Sequence of HSA (P02768 25-609): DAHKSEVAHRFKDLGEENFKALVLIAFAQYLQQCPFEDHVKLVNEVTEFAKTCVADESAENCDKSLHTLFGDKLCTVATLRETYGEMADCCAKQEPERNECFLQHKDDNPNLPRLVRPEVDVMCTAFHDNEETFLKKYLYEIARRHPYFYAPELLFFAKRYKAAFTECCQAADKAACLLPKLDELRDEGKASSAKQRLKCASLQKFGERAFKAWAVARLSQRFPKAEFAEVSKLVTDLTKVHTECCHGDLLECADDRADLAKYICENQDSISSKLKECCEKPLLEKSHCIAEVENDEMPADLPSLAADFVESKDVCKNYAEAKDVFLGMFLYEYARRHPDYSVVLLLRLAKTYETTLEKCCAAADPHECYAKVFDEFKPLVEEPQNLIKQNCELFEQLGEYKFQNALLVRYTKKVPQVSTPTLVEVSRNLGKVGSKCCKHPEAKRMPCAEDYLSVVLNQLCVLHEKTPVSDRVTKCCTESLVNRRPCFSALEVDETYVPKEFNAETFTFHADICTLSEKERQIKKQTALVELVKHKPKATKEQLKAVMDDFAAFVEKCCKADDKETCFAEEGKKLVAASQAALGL

“4-(4-(4-Fluorophenyl)-2-(piperidin-4-yl)thiazol-5-yl)-N-(1-(piperidin-4-yl)-1H-pyrazol-3-yl)pyrimidin-2-amine [Compound 24]”: the values for the EC50 (in “Cell cytotoxicity assay”; in data set [1]) were 100 µM and 3.31 µM, respectively. At HSA, this compound came in with an HSA binding of 93%. Also, the logD in data set [2] is 1.29. In data set [3], this compound gave a Solubility of 131 µM. This compound had an AMP (Tables 2 and 5) of 3e-07 cm/s.

As to `CN1CCC(c2nc(-c3ccc(F)c(NS(C)(=O)=O)c3)c(-c3ccnc(NCC4CC4)n3)s2)CC1` [Compound 5, reference compound], the HSA binding on HSA was determined as 91%. Moreover, in data set [4] (setting [9]), the “rate of killing in PRR study” value was “slow-acting compound; also recorded: slow parasite killing kinetics”. Further, the EC50 in [5] worked out at 0.11 µM. The compound also registered an AMP (Tables 1 and 4) of 3.4e-05 cm/s; an AMP (Tables 2 and 5) of 3.4e-06 cm/s.

With `CN1CCN(c2ccc(Nc3nccc(-c4sc(C5CCNCC5)nc4-c4ccc(F)cc4)n3)cc2)CC1` [Compound 7, reference compound], the “cytotoxicity/cell activity safety window” value in the data set “Cell cytotoxicity assay” is given as 5.4. At HSA, this compound gave an HSA binding of 97%.

As for `Nc1nc(-c2ccc(F)cc2)c(-c2ccnc(Nc3ccc(N4CCOCC4)cc3)n2)s1` [Compound 13, 4-[2-Amino-4-(4-fluorophenyl)-1,3-thiazol-5-yl]-N-[4-(morpholin-4-yl)phenyl]pyrimidin-2-amine], in data set [6], the EC50 is more than 5 µM.

`Cc1csc(Nc2nccc(-c3sc(C4CCNCC4)nc3-c3ccc(F)cc3)n2)n1` [Compound 21, N-(4-(4-(4-Fluorophenyl)-2-(piperidin-4-yl)thiazol-5-yl)pyrimidin-2-yl)-4-methylthiazol-2-amine]: the HSA binding on HSA turned out to be 96%. This compound also had an AMP (Tables 2 and 5) of 1.5e-06 cm/s.

The compound `Cc1cc(Nc2nccc(-c3sc(C4CCNCC4)nc3-c3ccc(F)cc3)n2)on1` [Compound 22, N-(4-(4-(4-Fluorophenyl)-2-(piperidin-4-yl)thiazol-5-yl)pyrimidin-2-yl)-3-methylisoxazol-5-amine] returned an HSA binding at HSA of 94%. Under “Tables 2 and 5”, the AMP was found to be 1.2e-06 cm/s.

`Cc1cc(Nc2nccc(-c3sc(C4CCNCC4)nc3-c3ccc(F)cc3)n2)nn1C` [Compound 23, N-(1,5-Dimethyl-1H-pyrazol-3-yl)-4-(4-(4-fluorophenyl)-2-(piperidin-4-yl)thiazol-5-yl)pyrimidin-2-amine] showed an HSA binding on HSA of 93%. The compound also had an AMP (Tables 2 and 5) of 2e-06 cm/s.

Turning to `Fc1ccc(-c2nc(C3CCNCC3)sc2-c2ccnc(Nc3ccccn3)n2)cc1` [Compound 25, 4-(4-(4-Fluorophenyl)-2-(piperidin-4-yl)thiazol-5-yl)-N-(pyridin-2-yl)pyrimidin-2-amine], on HSA, the HSA binding was found to be 94%. Besides, the AMP (Tables 2 and 5) stood at 3.3e-06 cm/s.

As for `Fc1ccc(-c2nc(C3CCNCC3)sc2-c2ccnc(Nc3cnccn3)n2)cc1` [Compound 26, 4-(4-(4-Fluorophenyl)-2-(piperidin-4-yl)thiazol-5-yl)-N-(pyrazin-2-yl)pyrimidin-2-amine], at HSA, the HSA binding came out at 92%. Further, where the note is “Tables 2 and 5”, the AMP worked out at 1.6e-06 cm/s.

Consider `Fc1ccc(-c2nc(C3CCNCC3)sc2-c2ccnc(Nc3cccnn3)n2)cc1` [Compound 27, N-(4-(4-(4-Fluorophenyl)-2-(piperidin-4-yl)thiazol-5-yl)pyrimidin-2-yl)pyridazin-3-amine], for which the HSA binding at HSA is reported as 90%. In addition, where the note is “Tables 2 and 5”, the AMP worked out at 1.9e-06 cm/s.

Turning to `Fc1ccc(-c2nc(C3CCNCC3)oc2-c2ccnc(Nc3ccncn3)n2)cc1` [Compound 28B], at HSA, the HSA binding was 89%. Where the note is “Tables 2 and 5”, the AMP was 1.9e-06 cm/s.

`Cc1nccc(Nc2nccc(-c3sc(C4CCNCC4)nc3-c3ccc(F)cc3)n2)n1` [Compound 29, 4-[4-(4-Fluorophenyl)-2-(piperidin-4-yl)-1,3-thiazol-5-yl]-N-(2-methylpyrimidin-4-yl)pyrimidin-2-amine] gave an HSA binding on HSA of 91%. The AMP (Tables 2 and 5) turned out to be 1.8e-06 cm/s.

Turning to `Cc1cc(Nc2nccc(-c3sc(C4CCNCC4)nc3-c3ccc(F)cc3)n2)ccn1` [Compound 31, 4-(4-(4-Fluorophenyl)-2-(piperidin-4-yl)thiazol-5-yl)-N-(2-methylpyridin-4-yl)pyrimidin-2-amine], the “cytotoxicity/cell activity safety window” value in the data set “Cell cytotoxicity assay” is 25. Besides, the HSA binding on HSA is recorded as 97.8%. Moreover, in data set [4] (setting [9]), the “rate of killing in PRR study” value was “extremely fast-killing effect”. For the setting “Tables 2 and 5”, this compound gave an AMP of 2.1e-06 cm/s.

As to `Cc1nc(Nc2nccc(-c3sc(C4CCNCC4)nc3-c3ccc(F)cc3)n2)ccc1F` [Compound 35, N-(5-Fluoro-6-methylpyridin-2-yl)-4-(4-(4-fluorophenyl)-2-(piperidin-4-yl)thiazol-5-yl)pyrimidin-2-amine], at HSA, the HSA binding is recorded as 96%. Moreover, the AMP (Tables 2 and 5) stood at 3e-06 cm/s.

Turning to `OC(CNc1nccc(-c2sc(C3CCNCC3)nc2-c2ccc(F)cc2)n1)c1ccncc1` (stereo not shown) [Compound 40, 2-({4-[4-(4-Fluorophenyl)-2-(piperidin-4-yl)-1,3-thiazol-5-yl]pyrimidin-2-yl}amino)-1-(pyridin-4-yl)ethanol], on HSA, the HSA binding is 85%. Besides, for the setting “Tables 2 and 5”, the AMP worked out at 1e-07 cm/s. Further, in [6], the EC50 worked out at 1.05 µM.

`Nc1nccc(-c2sc(C3CCNCC3)nc2-c2ccc(F)cc2)n1` [Compound 41, 4-[4-(4-Fluorophenyl)-2-(piperidin-4-yl)-1,3-thiazol-5-yl]pyrimidin-2-amine] displayed an HSA binding at HSA of 75%. Where the note is “Tables 1 and 4”, the AMP was determined as 1.3e-05 cm/s.

Compound `Fc1ccc(-c2nc(C3CCNCC3)sc2-c2ccnc(NCCN3CCSCC3)n2)cc1` [Compound 50, 4-(4-(4-Fluorophenyl)-2-(piperidin-4-yl)thiazol-5-yl)-N-(2-thiomorpholinoethyl)pyrimidin-2-amine] returned an HSA binding at HSA of 90%. Besides, in data set [7], the Kd was more than 20 µM. Moreover, on SRPK2, the “apparent Kd SRPK2 on immobilized compounds” value is recorded as “not bind to 50 attached to beads”.

Consider `Cc1cc(Nc2nccc(-c3sc(C4CCNCC4)nc3C3CC3)n2)ccn1` [Compound 59, 4-(4-Cyclopropyl-2-(piperidin-4-yl)thiazol-5-yl)-N-(2-methylpyridin-4-yl)pyrimidin-2-amine Dihydrochloride], for which the Cl rat in data set [8] is given as 1.8 mL/min/g. For the same compound, the “rate of killing in PRR study” value in data set [4] is “potent fast-killing properties”. Also, where the note is “PAMPA”, the AMP amounted to 1.8.

On to `Cc1cc(Nc2nccc(-c3sc(C4CCNCC4)nc3CN3CCCCC3)n2)ccn1` [Compound 60, N-(2-Methylpyridin-4-yl)-4-(4-(piperidin-1-ylmethyl)-2-(piperidin-4-yl)thiazol-5-yl)pyrimidin-2-amine Trihydrochloride], for which, in “Cell cytotoxicity assay”, the “cytotoxicity/cell activity safety window” value amounted to 105. In addition, the “rate of killing in PRR study” value in data set [4] (setting [9]) is on record as “potent fast-killing properties”.

As for `C[C@H]1[C@H](OC(=O)CCC(=O)O)O[C@@H]2O[C@@]3(C)CC[C@H]4[C@H](C)CC[C@@H]1[C@@]24OO3` [artesunate], the “rate of killing in PRR study” value in [4] (setting [9]) was “fast rate of killing”.

For `O=C1C(O)=C([C@H]2CC[C@H](c3ccc(Cl)cc3)CC2)C(=O)c2ccccc21` [atovaquone], the “rate of killing in PRR study” value in [4] (setting [9]) is recorded as “slow rate of killing”.

For the compound `CCc1nc(N)nc(N)c1-c1ccc(Cl)cc1` [pyrimethamine], the “rate of killing in PRR study” value in [4] (setting [9]) is “moderate rate of killing”.
